{"source": "ChEMBL document CHEMBL1201862", "about": "“PubChem BioAssay data set” (2004)", "experiment_in_all_cases": "growth of human tumour cells (NCI), 48 h", "key": {"[1]": {"test_system": "786-0"}, "[2]": {"test_system": "A498"}, "[3]": {"test_system": "A549"}, "[4]": {"test_system": "ACHN"}, "[5]": {"test_system": "CAKI-1"}, "[6]": {"test_system": "CCRF-CEM"}, "[7]": {"test_system": "DLD-1"}, "[8]": {"test_system": "DMS-114"}, "[9]": {"test_system": "DMS-273"}, "[10]": {"test_system": "EKVX"}, "[11]": {"test_system": "HCC 2998"}, "[12]": {"test_system": "HCT-116"}, "[13]": {"test_system": "HCT-15"}, "[14]": {"test_system": "HL-60"}, "[15]": {"test_system": "HOP-18"}, "[16]": {"test_system": "HOP-62"}, "[17]": {"test_system": "HOP-92"}, "[18]": {"test_system": "HT-29"}, "[19]": {"test_system": "IGROV-1"}, "[20]": {"test_system": "K562"}, "[21]": {"test_system": "KM-20L2"}, "[22]": {"test_system": "KM12"}, "[23]": {"test_system": "LXFL 529"}, "[24]": {"test_system": "M14"}, "[25]": {"test_system": "M19-MEL"}, "[26]": {"test_system": "MOLT-4"}, "[27]": {"test_system": "Malme-3M"}, "[28]": {"test_system": "NCI-H226"}, "[29]": {"test_system": "NCI-H23"}, "[30]": {"test_system": "NCI-H460"}, "[31]": {"test_system": "NCI-H522"}, "[32]": {"test_system": "OVCAR-4"}, "[33]": {"test_system": "OVCAR-5"}, "[34]": {"test_system": "OVCAR-8"}, "[35]": {"test_system": "RPMI-8226"}, "[36]": {"test_system": "RXF 393"}, "[37]": {"test_system": "SF-268"}, "[38]": {"test_system": "SF-295"}, "[39]": {"test_system": "SF-539"}, "[40]": {"test_system": "SK-MEL-28"}, "[41]": {"test_system": "SK-MEL-2"}, "[42]": {"test_system": "SK-MEL-5"}, "[43]": {"test_system": "SK-OV-3"}, "[44]": {"test_system": "SN12C"}, "[45]": {"test_system": "SNB-19"}, "[46]": {"test_system": "SNB-75"}, "[47]": {"test_system": "SNB-78"}, "[48]": {"test_system": "SR"}, "[49]": {"test_system": "SW-620"}, "[50]": {"test_system": "TK-10"}, "[51]": {"test_system": "U-251"}, "[52]": {"test_system": "UACC-257"}, "[53]": {"test_system": "UACC-62"}, "[54]": {"test_system": "UO-31"}, "[55]": {"test_system": "XF498"}}, "note": "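Values below derive from 48-hour exposures of cells grown in 96-well plates, with endpoints linearly interpolated between the two concentrations bracketing the appropriate inhibition level. GI50 marks 50% less growth.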 Active and inactive are the calls of the source. Cut-off read from the data, not from the text of the source: active = GI50 up to about 1.1 µM and inactive = higher.", "data": [{"smiles": "CN(C)C(=O)NC(=S)N(C)C", "values": [{"measurement": "GI50", "setting": "[1]", "result": "> 100 µM (inactive)"}, {"measurement": "GI50", "setting": "[2]", "result": "> 100 µM (inactive)"}, {"measurement": "GI50", "setting": "[3]", "result": "> 100 µM (inactive)"}, {"measurement": "GI50", "setting": "[4]", "result": "> 100 µM (inactive)"}, {"measurement": "GI50", "setting": "[5]", "result": "> 100 µM (inactive)"}, {"measurement": "GI50", "setting": "[6]", "result": "> 100 µM (inactive)"}, {"measurement": "GI50", "setting": "[7]", "result": "> 100 µM (inactive)"}, {"measurement": "GI50", "setting": "[8]", "result": "> 100 µM (inactive)"}, {"measurement": "GI50", "setting": "[9]", "result": "> 100 µM (inactive)"}, {"measurement": "GI50", "setting": "[10]", "result": "> 100 µM (inactive)"}, {"measurement": "GI50", "setting": "[11]", "result": "> 100 µM (inactive)"}, {"measurement": "GI50", "setting": "[12]", "result": "> 100 µM (inactive)"}, {"measurement": "GI50", "setting": "[13]", "result": 17.1, "unit": "µM"}, {"measurement": "GI50", "setting": "[14]", "result": "> 100 µM (inactive)"}, {"measurement": "GI50", "setting": "[15]", "result": "> 100 µM (inactive)"}, {"measurement": "GI50", "setting": "[16]", "result": "0.294 µM (active)"}, {"measurement": "GI50", "setting": "[17]", "result": "> 100 µM (inactive)"}, {"measurement": "GI50", "setting": "[18]", "result": "> 100 µM (inactive)"}, {"measurement": "GI50", "setting": "[19]", "result": "> 100 µM (inactive)"}, {"measurement": "GI50", "setting": "[20]", "result": "> 100 µM (inactive)"}, {"measurement": "GI50", "setting": "[21]", "result": "> 100 µM (inactive)"}, {"measurement": "GI50", "setting": "[22]", "result": "> 100 µM (inactive)"}, {"measurement": "GI50", "setting": "[23]", "result": "> 100 µM (inactive)"}, {"measurement": "GI50", "setting": "[24]", "result": "> 100 µM (inactive)"}, {"measurement": "GI50", "setting": "[25]", "result": "> 100 µM (inactive)"}, {"measurement": "GI50", "setting": "[26]", "result": "> 100 µM (inactive)"}, {"measurement": "GI50", "setting": "[27]", "result": "> 100 µM (inactive)"}, {"measurement": "GI50", "setting": "[28]", "result": "55.1 µM (inactive)"}, {"measurement": "GI50", "setting": "[29]", "result": "> 100 µM (inactive)"}, {"measurement": "GI50", "setting": "[30]", "result": "> 100 µM (inactive)"}, {"measurement": "GI50", "setting": "[31]", "result": "> 100 µM (inactive)"}, {"measurement": "GI50", "setting": "[32]", "result": "> 100 µM (inactive)"}, {"measurement": "GI50", "setting": "[33]", "result": "> 100 µM (inactive)"}, {"measurement": "GI50", "setting": "[34]", "result": "> 100 µM (inactive)"}, {"measurement": "GI50", "setting": "[35]", "result": "> 100 µM (inactive)"}, {"measurement": "GI50", "setting": "[36]", "result": "> 100 µM (inactive)"}, {"measurement": "GI50", "setting": "[37]", "result": "> 100 µM (inactive)"}, {"measurement": "GI50", "setting": "[38]", "result": "> 100 µM (inactive)"}, {"measurement": "GI50", "setting": "[39]", "result": "> 100 µM (inactive)"}, {"measurement": "GI50", "setting": "[40]", "result": "> 100 µM (inactive)"}, {"measurement": "GI50", "setting": "[41]", "result": "> 100 µM (inactive)"}, {"measurement": "GI50", "setting": "[42]", "result": "> 100 µM (inactive)"}, {"measurement": "GI50", "setting": "[43]", "result": "> 100 µM (inactive)"}, {"measurement": "GI50", "setting": "[44]", "result": "> 100 µM (inactive)"}, {"measurement": "GI50", "setting": "[45]", "result": "> 100 µM (inactive)"}, {"measurement": "GI50", "setting": "[46]", "result": "> 100 µM (inactive)"}, {"measurement": "GI50", "setting": "[47]", "result": "> 100 µM (inactive)"}, {"measurement": "GI50", "setting": "[48]", "result": "> 100 µM (inactive)"}, {"measurement": "GI50", "setting": "[49]", "result": "> 100 µM (inactive)"}, {"measurement": "GI50", "setting": "[50]", "result": "> 100 µM (inactive)"}, {"measurement": "GI50", "setting": "[51]", "result": "0.206 µM (active)"}, {"measurement": "GI50", "setting": "[52]", "result": "> 100 µM (inactive)"}, {"measurement": "GI50", "setting": "[53]", "result": "> 100 µM (inactive)"}, {"measurement": "GI50", "setting": "[54]", "result": "> 100 µM (inactive)"}, {"measurement": "GI50", "setting": "[55]", "result": "> 100 µM (inactive)"}]}]}
